Source: the supplement of paper PMC10307832

Columns and labels:
Experiment in all cases: relative viability (nuclei count vs DMSO), 5 days (fraction); higher = more cells survive
A-427 = test system: A-427
How it was run: (§1)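 One day after seeding in 1536-well plates, lung cancer cell lines were dosed by pin tool. Dosing was either single-drug or a fixed anchor-drug dose plus five library-drug doses (not always all listed) in √10 steps. After 5 days, nuclei were stained in one fix-and-stain step and counted on 4× images, and relative viability is the nuclei count of treated wells over that of vehicle wells, given as the median of duplicate plates.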

CAL-12T = test system: CAL-12T
How it was run: as §1

COR-L 105 = test system: COR-L 105
How it was run: as §1

EPLC-272H = test system: EPLC-272H
How it was run: as §1

HCC-15 = test system: HCC-15
How it was run: as §1

HCC-44 = test system: HCC-44
How it was run: as §1

LC-2-ad = test system: LC-2-ad
How it was run: as §1

LCLC-97TM1 = test system: LCLC-97TM1
How it was run: as §1

NCI-H1395 = test system: NCI-H1395
How it was run: as §1

NCI-H1563 = test system: NCI-H1563
How it was run: as §1

NCI-H1734 = test system: NCI-H1734
How it was run: as §1

NCI-H1792 = test system: NCI-H1792
How it was run: as §1

Cc1csc(=NC2CCCCC2)n1/N=C/c1ccc(O)c(O)c1O [MIM1] + N=C(N)NC(=N)NCCc1ccccc1 [Phenformin] (partner 250 µM)
relative viability (A-427; first compound 0.2 µM): 0.35
relative viability (A-427; first compound 2 µM): 0.361
relative viability (A-427; first compound 6.325 µM): 0.244
relative viability (A-427; first compound 20 µM): 0.137
relative viability (CAL-12T; first compound 0.2 µM): 0.614
relative viability (CAL-12T; first compound 0.6325 µM): 0.467
relative viability (CAL-12T; first compound 2 µM): 0.586
relative viability (CAL-12T; first compound 6.325 µM): 0.372
relative viability (CAL-12T; first compound 20 µM): 0.119
relative viability (COR-L 105; first compound 0.2 µM): 0.513
relative viability (COR-L 105; first compound 0.6325 µM): 0.461
relative viability (COR-L 105; first compound 2 µM): 0.404
relative viability (COR-L 105; first compound 6.325 µM): 0.316
relative viability (COR-L 105; first compound 20 µM): 0.307
relative viability (EPLC-272H; first compound 0.2 µM): 0.324
relative viability (EPLC-272H; first compound 0.6325 µM): 0.273
relative viability (EPLC-272H; first compound 2 µM): 0.279
relative viability (EPLC-272H; first compound 6.325 µM): 0.184
relative viability (EPLC-272H; first compound 20 µM): 0.104
relative viability (HCC-15; first compound 0.2 µM): 0.501
relative viability (HCC-15; first compound 2 µM): 0.51
relative viability (HCC-15; first compound 6.325 µM): 0.162
relative viability (HCC-15; first compound 20 µM): 0.114
relative viability (HCC-44; first compound 0.2 µM): 0.239
relative viability (HCC-44; first compound 0.6325 µM): 0.138
relative viability (HCC-44; first compound 2 µM): 0.111
relative viability (HCC-44; first compound 6.325 µM): 0.154
relative viability (HCC-44; first compound 20 µM): 0.13
relative viability (LC-2-ad; first compound 0.2 µM): 0.679
relative viability (LC-2-ad; first compound 0.6325 µM): 0.502
relative viability (LC-2-ad; first compound 2 µM): 0.537
relative viability (LC-2-ad; first compound 6.325 µM): 0.389
relative viability (LC-2-ad; first compound 20 µM): 0.217
relative viability (LCLC-97TM1; first compound 0.2 µM): 0.445
relative viability (LCLC-97TM1; first compound 0.6325 µM): 0.434
relative viability (LCLC-97TM1; first compound 2 µM): 0.413
relative viability (LCLC-97TM1; first compound 6.325 µM): 0.312
relative viability (LCLC-97TM1; first compound 20 µM): 0.142
relative viability (NCI-H1395; first compound 0.2 µM): 0.45
relative viability (NCI-H1395; first compound 0.6325 µM): 0.444
relative viability (NCI-H1395; first compound 2 µM): 0.459
relative viability (NCI-H1395; first compound 6.325 µM): 0.399
relative viability (NCI-H1395; first compound 20 µM): 0.346
relative viability (NCI-H1563; first compound 0.2 µM): 0.672
relative viability (NCI-H1563; first compound 0.6325 µM): 0.734
relative viability (NCI-H1563; first compound 2 µM): 0.706
relative viability (NCI-H1563; first compound 6.325 µM): 0.631
relative viability (NCI-H1563; first compound 20 µM): 0.478
relative viability (NCI-H1734; first compound 0.2 µM): 0.395
relative viability (NCI-H1734; first compound 0.6325 µM): 0.375
relative viability (NCI-H1734; first compound 2 µM): 0.443
relative viability (NCI-H1734; first compound 6.325 µM): 0.35
relative viability (NCI-H1734; first compound 20 µM): 0.179
relative viability (NCI-H1792; first compound 0.2 µM): 0.446
relative viability (NCI-H1792; first compound 0.6325 µM): 0.401
relative viability (NCI-H1792; first compound 2 µM): 0.322
